Test results from patent US9615577B2, “Herbicidally active cyclic dione compounds, or derivatives therefor, substituted by a phenyl which has an alkynyl-containing substituent” (Syngenta Limited, priority 2012, dated 2017).

Legend:
Assay type in all cases: in vivo
Setaria faberi (SETFA) [1] = assay: Test 1A glasshouse assay for herbicidal activity, post-emergence; conditions: 312 h, evaluated after 13 days, read-out: percentage phytotoxicity SETFA
Procedure, shortened: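 Pots sprayed 1 day (pre-emergence) or 8 days (post-emergence) after sowing with compound in acetone/water (50:50) containing 0.5% Tween 20. Glasshouse at 24/16 °C day/night, 14 h light, 65% humidity; visual phytotoxicity scored after 13 days on 0–100 scale (100 = total damage).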

[2] = test system: Beta vulgaris (BEAVA, sugar beet); assay: Test 1B glasshouse assay for herbicidal activity, pre-emergence; conditions: 480 h, 20 DAA, read-out: percentage phytotoxicity BEAVA
Procedure: (§1) Seeds of a variety of monocotyledonous and dicotyledonous test plants are sown in standard soil in pots. The plants are cultivated for one day (for pre-emergence) or for about 12 days (range=10-13 days) (for post-emergence) under controlled conditions in a glasshouse (warm climate species at 24/18° C., cool climate species at 20/16° C., both at day/night; 16 hours light; 65% humidity).
(§2) An “instant formulation”, known as the “IF50”, containing 50 g/liter (i.e. 5% w/v) of the “technical” (i.e. unformulated) active ingredient is prepared by dissolving the active ingredient in a mixture of organic solvents and emulsifier, details of which are provided in the Table below. This IF50 is then mixed with a small, variable amount of acetone to aid dissolution, before addition of a 0.2% v/v aqueous solution of the adjuvant X-77 (which is a mixture of alkyl aryl polyoxyethylene glycols and free fatty acids in isopropanol, CAS Registry number 11097-66-8), as the aqueous diluent, to form an aqueous spray solution which contains a predetermined concentration of the active ingredient (which varies depending on the application rate of the active ingredient to the plants) and 0.2% v/v of the adjuvant X-77. This aqueous spray solution is then sprayed onto the plants, after one day's cultivation (for pre-emergence) or after about 12 days' cultivation (for post-emergence).
(§3) The test plants are then grown on, in a glasshouse (greenhouse) under controlled conditions (at either 24/18° C. or 20/16° C. (day/night) as mentioned above; 16 hours light; 65% humidity) and are watered twice daily. Either 15 days after application of the herbicide (15 DAA) (for post-emergence), or 20 days after application of the herbicide (20 DAA) (for pre-emergence), the test plants are evaluated visually, and an assessed percentage phytotoxicity score is given for each herbicidal application on each plant species (where 100%=total damage to plant; 0%=no damage to plant).
(§4) Cool climate crop plants: Triticum aestivum (TRZAW, winter wheat), Brassica napus (BRSNN, rape, also called oilseed rape or rapeseed), Beta vulgaris (BEAVA, sugar beet).

[3] = test system: Brassica napus (BRSNN, rape); assay: as above; conditions: 480 h, 20 DAA, read-out: percentage phytotoxicity BRSNN
Procedure: as §1, §2, §3, §4

[4] = test system: Triticum aestivum (TRZAW, winter wheat); assay: as above; conditions: 480 h, 20 DAA, read-out: percentage phytotoxicity TRZAW
Procedure: as §1, §2, §3, §4

[5] = test system: Glycine max (GLXMA, soybean); assay: as above; conditions: 480 h, 20 DAA, read-out: percentage phytotoxicity GLXMA
Procedure: as §1, §2, §3
(§5) Warm climate crop plants: Glycine max (GLXMA, soybean).

[6] = test system: Beta vulgaris (BEAVA, sugar beet); assay: Test 1B glasshouse assay for herbicidal activity, post-emergence; conditions: 360 h; for plant injury at 30 g/ha: 30 g/ha application rate; for plant injury at 60 g/ha: 60 g/ha application rate
Procedure: as §1, §2, §3, §4

[7] = test system: Brassica napus (BRSNN, rape); assay: as above; conditions: 360 h; for plant injury at 30 g/ha: 30 g/ha application rate; for plant injury at 60 g/ha: 60 g/ha application rate
Procedure: as §1, §2, §3, §4

[8] = test system: Triticum aestivum (TRZAW, winter wheat); assay: as above; conditions: 360 h; for plant injury at 60 g/ha: 60 g/ha application rate
Procedure: as §1, §2, §3, §4

[9] = test system: Glycine max (GLXMA, soybean); assay: as above; conditions: 360 h; for plant injury at 30 g/ha: 30 g/ha application rate; for plant injury at 60 g/ha: 60 g/ha application rate
Procedure: as §1, §2, §3, §5

[10] = test system: Alopecurus myosuroides (ALOMY); assay: as above; conditions: 360 h; for pest or weed control at 30 g/ha: 30 g/ha application rate; for pest or weed control at 60 g/ha: 60 g/ha application rate
Procedure: as §1, §2, §3
(§6) Cool climate (“cool season”) grassy monocotyledonous weeds: Alopecurus myosuroides (ALOMY), Avena fatua (AVEFA), Lolium perenne (LOLPE).

Avena fatua (AVEFA) = assay: as above; conditions: 360 h; for pest or weed control at 30 g/ha: 30 g/ha application rate; for pest or weed control at 60 g/ha: 60 g/ha application rate
Procedure: as §1, §2, §3, §6

Lolium perenne (LOLPE) = assay: as above; conditions: 360 h; for pest or weed control at 30 g/ha: 30 g/ha application rate; for pest or weed control at 60 g/ha: 60 g/ha application rate
Procedure: as §1, §2, §3, §6

[11] = test system: Digitaria sanguinalis (DIGSA); assay: as above; conditions: 360 h; for pest or weed control at 30 g/ha: 30 g/ha application rate; for pest or weed control at 60 g/ha: 60 g/ha application rate
Procedure: as §1, §2, §3
(§7) Warm climate (“warm season”) grassy monocotyledonous weeds: Setaria faberi (SETFA), SORVU (Sorghum bicolor (L.) Moench ssp. Bicolor, or Sorghum vulgare Pers.), Digitaria sanguinalis (DIGSA), Echinochloa crus-galli (ECHCG), and Brachiaria plantaginea (BRAPL).

[12] = test system: SORVU (Sorghum bicolor (L.) Moench ssp. Bicolor, or Sorghum vulgare Pers.); assay: as above; conditions: 360 h; for pest or weed control at 30 g/ha: 30 g/ha application rate; for pest or weed control at 60 g/ha: 60 g/ha application rate
Procedure: as §1, §2, §3, §7

Setaria faberi (SETFA) [13] = assay: as above; conditions: 360 h; for pest or weed control at 30 g/ha: 30 g/ha application rate; for pest or weed control at 60 g/ha: 60 g/ha application rate
Procedure: as §1, §2, §3, §7

[14] = test system: Echinochloa crus-galli (ECHCG); assay: as above; conditions: Echinochloa crus-galli; for pest or weed control at 30 g/ha: 30 g/ha application rate; for pest or weed control at 60 g/ha: 60 g/ha application rate
Procedure: as §1, §2, §3, §7
Note: The herbicidal activity data (e.g. post-emergence) shown above in Biological Example 1B for Comparator compounds X-9 and X-10 is thought likely to have been measured some years ago, probably using a variant of the above-described test method. Also, for the post-emergence activity of X-9 and X-10 it is not currently known exactly how many days after application of the herbicide the phytotoxicity on the plants was measured.

Compound | pest or weed control at 250 g/ha (Setaria faberi (SETFA) [1]) [%] | plant injury at 30 g/ha [6] [%] | plant injury at 60 g/ha [6] [%] | plant injury at 30 g/ha [7] [%] | plant injury at 60 g/ha [7] [%] | plant injury at 60 g/ha [8] [%] | plant injury at 30 g/ha [9] [%] | plant injury at 60 g/ha [9] [%] | pest or weed control at 30 g/ha [10] [%] | pest or weed control at 60 g/ha [10] [%] | pest or weed control at 30 g/ha (Avena fatua (AVEFA)) [%] | pest or weed control at 60 g/ha (Avena fatua (AVEFA)) [%] | pest or weed control at 30 g/ha (Lolium perenne (LOLPE)) [%] | pest or weed control at 60 g/ha (Lolium perenne (LOLPE)) [%] | pest or weed control at 30 g/ha [11] [%] | pest or weed control at 60 g/ha [11] [%] | pest or weed control at 30 g/ha [12] [%] | pest or weed control at 60 g/ha [12] [%] | pest or weed control at 30 g/ha (Setaria faberi (SETFA) [13]) [%] | pest or weed control at 60 g/ha (Setaria faberi (SETFA) [13]) [%] | also measured
Cc1cc(C#CCl)cc(C)c1C1C(=O)C2CCC(C2)C1=O (stereo not shown) [Compound A-6] | 90 | 40 | 50 | 40 | 60 | 40 | 0 | 0 | 50 | 50 | 50 | 60 | 40 | 70 | 100 | 100 | 90 | 90 | 100 | 100 | pest or weed control at 62.5 g/ha (Setaria faberi (SETFA) [1]; 62.5 g/ha): 90%; plant injury at 125 g/ha ([2]; 125 g/ha): 0%; plant injury at 125 g/ha ([3]; 125 g/ha): 70%; plant injury at 125 g/ha ([4]; 125 g/ha): 10%; plant injury at 125 g/ha ([5]; 125 g/ha): 0%; pest or weed control at 30 g/ha [14]: 90%; pest or weed control at 60 g/ha [14]: 90%
CC#Cc1ccc(C2C(=O)C3CCC(C3)C2=O)c(C)c1 (single isomer, unassigned) [Compound A-2] | 100 | – | 10 | – | 70 | 80 | – | 40 | – | 90 | – | 80 | – | 80 | – | 100 | – | 80 | – | 100 | plant injury at 500 g/ha ([2]; 500 g/ha): 0%; plant injury at 500 g/ha ([3]; 500 g/ha): 40%; plant injury at 500 g/ha ([4]; 500 g/ha): 60%; plant injury at 500 g/ha ([5]; 500 g/ha): 0%; pest or weed control at 60 g/ha [14]: 100%
CC#Cc1cc(C)c(C2=C(OC(=O)OC)CC(c3ccccn3)CC2=O)c(C)c1 (stereo not shown) [Compound A-14] | 100 | 30 | – | 60 | – | – | 40 | – | 70 | – | 20 | – | 70 | – | 80 | – | 80 | – | 80 | – | plant injury at 250 g/ha ([2]; 250 g/ha): 30%; plant injury at 250 g/ha ([3]; 250 g/ha): 60%; plant injury at 250 g/ha ([4]; 250 g/ha): 40%; plant injury at 250 g/ha ([5]; 250 g/ha): 20%; plant injury at 125 g/ha ([6]; 125 g/ha application rate): 40%; plant injury at 125 g/ha ([7]; 125 g/ha application rate): 70%; plant injury at 30 g/ha ([8]; 30 g/ha application rate): 60%; plant injury at 125 g/ha ([8]; 125 g/ha application rate): 80%; plant injury at 125 g/ha ([9]; 125 g/ha application rate): 70%; pest or weed control at 125 g/ha ([10]; 125 g/ha application rate): 80%; pest or weed control at 125 g/ha (Avena fatua (AVEFA); 125 g/ha application rate): 60%; pest or weed control at 125 g/ha (Lolium perenne (LOLPE); 125 g/ha application rate): 80%; pest or weed control at 125 g/ha ([11]; 125 g/ha application rate): 100%; pest or weed control at 125 g/ha ([12]; 125 g/ha application rate): 100%; pest or weed control at 125 g/ha (Setaria faberi (SETFA) [13]; 125 g/ha application rate): 90%; pest or weed control at 30 g/ha [14]: 80%; pest or weed control at 125 g/ha ([14]; 125 g/ha application rate): 100%
